Results on 16 compounds are retold here after ChEMBL document CHEMBL2040814, “Synthesis and biological activity of substituted 2,4-diaminopyrimidines that inhibit Bacillus anthracis” (2012).

Converted amounts (≈) assume the structure as drawn.

For the assay, the system named is Bacillus anthracis. Briefly: Antibacterial activity against Bacillus anthracis Sterne after 16 hrs by alamar blue broth microdilution technique. The format is functional. In general terms: Resazurin is reduced to fluorescent resorufin, in cell work by metabolically active cells.
For orientation: MIC means the lowest concentration that inhibits growth of the organism. Low values mean greater potency, high ones weaker potency. For the compound `COc1ccc(CC2c3ccccc3C=NN2C(=O)/C=C/c2cc(Cc3cnc(N)nc3N)cc(OC)c2OC)cc1` (racemic), the MIC was found to be 8 µg/mL (≈ 14.2 µM).
With `COc1cc(Cc2cnc(N)nc2N)cc(/C=C/C(=O)N2N=Cc3ccccc3C2c2ccccc2C)c1OC` (racemic) the figure was 8 µg/mL (≈ 15 µM).
The compound `COc1cc(Cc2cnc(N)nc2N)cc(/C=C/C(=O)N2N=Cc3ccccc3C2CCC(F)(F)F)c1OC` (racemic) displayed an MIC of 1 µg/mL (≈ 1.85 µM).
Compound `COc1cc(Cc2cnc(N)nc2N)cc(/C=C/C(=O)N2N=Cc3ccccc3C2c2ccc(C)cc2)c1OC` (racemic) had an MIC of 1 µg/mL (≈ 1.87 µM).
With `COc1cc(Cc2cnc(N)nc2N)cc(/C=C/C(=O)N2N=Cc3ccccc3C2c2cc(C)cc(C)c2)c1OC` (racemic) the figure was 4 µg/mL (≈ 7.29 µM); with `COc1cc(Cc2cnc(N)nc2N)cc(/C=C/C(=O)N2N=Cc3ccccc3C2Cc2ccc(C)cc2)c1OC` (racemic), 4 µg/mL (≈ 7.29 µM); with `COc1cc(Cc2cnc(N)nc2N)cc(/C=C/C(=O)N2N=Cc3ccccc3C2c2cccc(F)c2)c1OC` (racemic), 2 µg/mL (≈ 3.71 µM).
The same measure for `CCC(CC)C1c2ccccc2C=NN1C(=O)/C=C/c1cc(Cc2cnc(N)nc2N)cc(OC)c1OC` (racemic): 4 µg/mL (≈ 7.77 µM); for `COc1cc(Cc2cnc(N)nc2N)cc(/C=C/C(=O)N2N=Cc3ccccc3C2Cc2ccc(OC(F)(F)F)cc2)c1OC` (racemic): 4 µg/mL (≈ 6.47 µM).
In the case of `COc1cc(Cc2cnc(N)nc2N)cc(/C=C/C(=O)N2N=Cc3ccccc3C2C(C)C)c1OC` (racemic), it took 1 µg/mL (≈ 2.06 µM) to inhibit growth (MIC).
Regarding `COc1cc(Cc2cnc(N)nc2N)cc(/C=C/C(=O)N2N=Cc3ccccc3C2c2ccc(F)cc2)c1OC` (racemic), the MIC came to 1 µg/mL (≈ 1.86 µM).
The same measure for `CCCC1c2ccccc2C=NN1C(=O)/C=C/c1cc(Cc2cnc(N)nc2N)cc(OC)c1OC` (racemic): 1 µg/mL (≈ 2.06 µM); for `COc1cc(Cc2cnc(N)nc2N)cc(/C=C/C(=O)N2N=Cc3ccccc3C2Cc2ccccc2)c1OC` (racemic): 8 µg/mL (≈ 15 µM).
The same measure for `COc1cc(Cc2cnc(N)nc2N)cc(/C=C/C(=O)N2N=Cc3ccccc3C2CC(C)C)c1OC` (racemic): 1 µg/mL (≈ 2 µM).
The same measure for `COc1cc(Cc2cnc(N)nc2N)cc(/C=C/C(=O)N2N=Cc3ccccc3C2c2ccccc2)c1OC` (racemic): 0.375 µg/mL (≈ 0.72 µM).
As to `COc1cc(Cc2cnc(N)nc2N)cc(/C=C/C(=O)N2N=Cc3ccccc3C2C2CCCCC2)c1OC` (racemic), the lowest concentration to inhibit growth (MIC) was 1 µg/mL (≈ 1.9 µM).
